The values below come from patent publication US11780826B2 (Amgen Inc., priority 2017, dated 2023).

The test system of the test is Bovine cardiac myofibrils. Description: In vitro model of dose-dependent myofibril ATPase modulation (AC1.4, pyruvate kinase/lactate dehydrogenase-coupled ATPase assay at pCa25). The test is classed as biochemical. The conditions noted are these: concentration at which ATPase activity was 1.4-fold higher than the bottom of the dose curve, mean of a minimum of two independent tests. Put shortly:
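Coupled-enzyme ATPase on bovine heart myofibrils, 1 mM ATP, EGTA/CaCl2 buffered; 340 nm readout.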

As for `N#CC1CN(S(=O)(=O)N2CCC[C@H](C(=O)N3CCC[C@@H]3C(=O)N[C@H]3Cc4ccccc43)C2)C1` [Example 565, N-((7S)-bicyclo[4.2.0]octa-1,3,5-trien-7-yl)-1-(((3S)-1-((3-cyano-1-azetidinyl)sulfonyl)-3-piperidinyl)carbonyl)-D-prolinamide], the AC1.4 is 3.077 µM.
Consider `NS(=O)(=O)c1ccc(F)c(C(=O)N2CCC[C@@H]2C(=O)N[C@@H](c2ccc(C(F)(F)F)cc2F)C2CC2)c1` [Example 566, N-((R)-cyclopropyl(2-fluoro-4-(trifluoromethyl)phenyl)methyl)-1-(2-fluoro-5-sulfamoylbenzoyl)-D-prolinamide], for which the AC1.4 was 3.0845 µM.
For `CS(=O)(=O)c1ccc(C(=O)N2CCC[C@@H]2C(=O)NC(c2ccc(C(F)(F)F)cc2F)C2CC2)s1` (stereo partly drawn) [Example 567, (2R)-N-(cyclopropyl(2-fluoro-4-(trifluoromethyl)phenyl)methyl)-1-(5-(methylsulfonyl)thiophene-2-carbonyl)pyrrolidine-2-carboxamide], the AC1.4 was 3.1075 µM.
As for `CS(=O)(=O)c1ccc(C(=O)N2CCC[C@@H]2C(=O)NC(c2ccc(C(F)(F)F)cc2F)C2CC2)cn1` (stereo partly drawn) [Example 569, (2R)-N-(cyclopropyl(2-fluoro-4-(trifluoromethyl)phenyl)methyl)-1-(6-(methylsulfonyl)nicotinoyl)pyrrolidine-2-carboxamide], the figure is 3.182 µM.
In the case of `CS(=O)(=O)c1cccc(C(=O)N2[C@@H](C(=O)N[C@@H](c3cc(F)c(C#N)cc3F)C3CC3)C[C@H]3C[C@H]32)c1` [Example 570, (1R,3R,5R)-N-((R)-(4-cyano-2,5-difluorophenyl)(cyclopropyl)methyl)-2-(3-(methylsulfonyl)benzoyl)-2-azabicyclo[3.1.0]hexane-3-carboxamide], the AC1.4 was determined as 3.1825 µM.
On to `Cc1ccccc1CNC(=O)[C@H]1CCCN1C(=O)[C@H]1CCCN(S(=O)(=O)N2CC(C#N)C2)C1` [Example 571, 1-(((3S)-1-((3-cyano-1-azetidinyl)sulfonyl)-3-piperidinyl)carbonyl)-N-(2-methylbenzyl)-D-prolinamide], for which the AC1.4 was 3.1845 µM.
`C[C@@H](NC(=O)[C@H]1[C@@H]2C[C@@H]2CN1C(=O)c1cccc(S(=O)(=O)N(C)C)c1)c1ccc(C(F)(F)F)cc1` [Example 572, (1R,2R,5S)-3-(3-(dimethylsulfamoyl)benzoyl)-N-((1R)-1-(4-(trifluoromethyl)phenyl)ethyl)-3-azabicyclo[3.1.0]hexane-2-carboxamide] gave an AC1.4 of 3.205 µM.
As for `O=C(N[C@@H](c1ccc(C(F)(F)F)cc1F)C1CC1)[C@H]1C[C@H]2C[C@H]2N1C(=O)c1cc(C(F)(F)F)ccn1` [Example 573, (1R,3R,5R)-N-((R)-cyclopropyl(2-fluoro-4-(trifluoromethyl)phenyl)methyl)-2-((4-(trifluoromethyl)-2-pyridinyl)carbonyl)-2-azabicyclo[3.1.0]hexane-3-carboxamide], the figure is 3.224 µM; as for `N#CC1CN(S(=O)(=O)N2CCC[C@H](C(=O)N3CCC[C@@H]3C(=O)NCc3ccccc3Cl)C2)C1` [Example 574, N-(2-chlorobenzyl)-1-(((3S)-1-((3-cyano-1-azetidinyl)sulfonyl)-3-piperidinyl)carbonyl)-D-prolinamide], 3.2325 µM; as for `CN1CC(C(NC(=O)[C@H]2C[C@H]3C[C@H]3N2C(=O)c2cccc(S(C)(=O)=O)c2)c2ccc(C(F)(F)F)cc2F)CC1=O` (stereo partly drawn) [Example 575, (1R,3R,5R)-N-((2-fluoro-4-(trifluoromethyl)phenyl)(1-methyl-5-oxopyrrolidin-3-yl)methyl)-2-(3-(methylsulfonyl)benzoyl)-2-azabicyclo[3.1.0]hexane-3-carboxamrde], 3.245 µM.
`CS(=O)(=O)c1cccc(C(=O)N2CCOC[C@@H]2C(=O)N[C@@H](c2ccc(C(F)(F)F)cc2F)C2CC2)c1` [Example 576, (3R)-N-((R)-cyclopropyl(2-fluoro-4-(trifluoromethyl)phenyl)methyl)-4-(3-(methylsulfonyl)benzoyl)-3-morpholinecarboxamide] returned an AC1.4 of 2.838 µM.
